Tests used:
Assay type in all cases: cell-based, Staphylococcus aureus
S. aureus (PCI 1203) [1] = experiment: Competitive hemin uptake assay (fluorescence microscopy); details: standard conditions (TS media); no background subtraction
S. aureus (PCI 1203) [2] = experiment: as above; details: for Fluorescence after 15 min / Fluorescence after 15 min exposure + 1 equiv. hemin: Fe-deficient conditions (TS media containing 3 mM bipy), no background subtraction; for effect of hemin competition on uptake: one equivalent of hemin, 15 minutes of co-incubation
Procedure: To elucidate the relevant structural features for the specific uptake of Ga-PpIX by S. aureus, we performed a competitive uptake assay using one equivalent of hemin against Ga-PpIX, PpIX, and eleven other fluorescent PpIX derivatives, with evaluation by fluorescence microscopy after 15 minutes of co-incubation (FIG. 5 and Table 4). These studies were partly guided by insights taken from the X-ray structures of hemin and Ga-PpIX within the binding pocket of IsdH: (i) coordination of the metal center by an apical tyrosine residue; (ii) the flanking of vinyl groups on pyrrole rings A and B against nearby aromatic residues; and (iii) the extension and presumed hydration of the propionyl groups (rings C and D) outside of the binding pocket.
Bacteria were cultured and assayed in iron-deficient media unless otherwise noted. A stock solution of Ga-PpIX (14.6 μM) was prepared by dispersing 5 mg in 1 mL of 10% DMSO in PBS for 10 minutes in an ultrasonic cleaning bath protected from light, followed by filtration and 10× dilution in PBS just prior to use. Bacterial suspensions (0.5 mL) were treated with freshly prepared solutions of PpIX derivatives for specified periods (5-15 min), then harvested by centrifugation at 5.2 g for 5 minutes, redispersed twice in 0.5 mL deionized water, and centrifuged a third time. A 10-μL aliquot of concentrated bacteria was deposited onto a glass slide and dried in air for 20 min, then imaged by fluorescence microscopy as described above. For details on fluorescence image processing and quantitative analysis, see Supporting Information.
S. aureus (PCI 1203; ATCC 10537) was first cultured in standard TS broth, then in media containing 3 mM bipyridine. Bacteria were pelleted and washed with PBS buffer three times, then resuspended to a final concentration of 10^8 cfu/mL. Stock solutions of hemin and PpIX derivatives 1-13 were prepared at initial concentrations of 292 μM; hemin and fluorescent PpIX solutions were mixed in a 1:1 ratio (0.5 mL), then added to 0.5 mL of bacterial suspension and allowed to sit for 15 min at room temperature. For control studies, hemin or fluorophore solutions were substituted with PBS to maintain constant […]. Bacteria were harvested and washed as described above, then evaluated by fluorescence microscopy for relative uptake efficiency.
Darkfield and fluorescent images were acquired in succession, with the former used to map regions of interest (ROIs) by tracing the outlines of bacteria (FIG. 8). Three images were acquired for each sample; in each case, the tracing map was overlaid onto the fluorescence image to calculate pixel intensities within each ROI, using the mean pixel intensity for quantitative analysis. Bacteria were also imaged without treatment with PpIX analogs, most of which produced values close to that of background except for Salmonella enterica, which served as the upper limit of autofluorescence (cf. FIG. 4). Data collection and image analyses were performed by the same user to ensure consistency for comparative analysis.

[3] = test system: S. aureus (PCI 1203; ATCC 10537); experiment: aPDI with CFL irradiation (406 nm), planktonic bacteria, drop-plate colony count; details: for potency relative to dark toxicity (0 min exposure): 3-log reduction
Procedure: The aPDI properties of Ga-PpIX were compared against PpIX, whose photosensitizer activities are well known and whose optical profile is similar to that of Ga-PpIX (FIG. 2).
All bacterial strains were cultured at 37° C. in an aerobic atmosphere unless otherwise noted. […] Bacterial counts were estimated in units of cfu/mL by plating serial dilutions onto agar plates, followed by incubation for 16 hours at 37° C. […] Further details and variations on iron-deficient culture conditions are provided in Supporting Information.
Antimicrobial assays were performed on planktonic bacteria at 10^7 cfu/mL with variable exposure times to CFL irradiation, followed by plating on agar and incubation at 37° C. […] The irradiated bacteria were plated onto agar in serial tenfold dilutions (10^7-10^1 cfu/mL); controls included one set of wells without photosensitizer, and one set of wells with photosensitizer but without 15 min irradiation, prior to plating (dark toxicity). Bacterial counts were determined by the drop-plate method using TS-agar plates, and reported in colony-forming units per milliliter (cfu/mL).
The irradiation source consisted of a 20-W compact fluorescent lightbulb (CFL; Sunlite SL20/BLB) housed in an ellipsoidal reflector dome.

S. aureus [4] = experiment: Antibacterial activity assay with LED light
Procedure: (§1) Antibacterial activity assay general protocol: Used LED light to test conditions. Bacteria were grown in TS broth, followed by 3 mM bipyridine in TS broth until log phase. Bacteria were then diluted with PBS, to OD 0.1 (˜10^) and then to ˜10^7 cfu/mL. 100 uL of bacteria were placed in 96 well plates with the appropriate GaPpIX concentration. 2× serial dilutions were then done to obtain other GaPpIX concentrations. Each concentration was done in triplicate. Bacteria were left incubating and irradiating for different amount of times at different light powers or left in the dark. 10× Serial dilutions were done and bacteria were plated for colony counting using the drop-plate technique. Colonies were counted after 24 hours. As reported herein, a 3-log reduction equals measurable antimicrobial action; a 6-log reduction equals total eradication.
(§2) Stock solution preparation (AVM-3-36, 10 nm AgNP). Prepared a solution of (AVM-2-273) GaPpIX-apoHb 1 mg/mL in MP H2O, deaerated. Took 10 mL of 10 nm AgNPs, centrifuged at 900 G for 5 min (Beckman, 3100 RPM), took supernantant and added 200 uL of GaPpIXHb. After overnight, centrifuged 3000 RPM g for 5 minutes (Beckman). Took supernantant and centrifuged using a 100 K CentriCon tube at 4000 RPM for 5 minutes, 3×. Added 15 mM borate buffer to NPs. Based on calibration curve, the stock solution is 1.94 ug/mL AgNP, so stock: 79 μg/mL AgNP, 10.37 μg/mL GaPpIXHb, 0.446 μg/mL GaPpIX (refer to AVM-2-293A and AVM-3-3).
(§3) The following antibacterial activity measurements were assayed in the presence of AgNP.

S. aureus [5] = experiment: aPDI with 405-nm LED bar, summary over strains; details: Ga-hemoglobin on 10-nm AgNP, 405-nm light, fluence about 1 J/cm^2
Procedure: as §1

MRSA386 = experiment: Antibacterial activity assay with LED light; details: in the presence of 10 nm AgNP
Procedure: as §1, §2, §3

MRSA385 = experiment: Antibacterial activity assay with LED light; details: in the presence of 10 nm AgNP
Procedure: as §1, §2, §3

MRSA387 = experiment: Antibacterial activity assay with LED light; details: in the presence of 10 nm AgNP
Procedure: as §1, §2, §3

MRSA383 = experiment: Antibacterial activity assay with LED light; details: in the presence of 10 nm AgNP
Procedure: as §1, §2, §3

| Molecule | Fluorescence after 15 min (S. aureus (PCI 1203) [2]) | Fluorescence after 15 min exposure + 1 equiv. hemin (S. aureus (PCI 1203) [2]) | effect of hemin competition on uptake (S. aureus (PCI 1203) [2]) | also measured |
| --- | --- | --- | --- | --- |
| Verteporfin [Verteporfin (13), reference compound] | 30.75 a.u. | 28 a.u. | less affected by hemin | Fluorescence after 15 min (S. aureus (PCI 1203) [1]): 25.82 a.u.; Fluorescence after 15 min exposure + 1 equiv. hemin (S. aureus (PCI 1203) [1]): 23.72 a.u. |
| di-O-acetyl-HP dimethyl diester [DiAcHP diMe (9)] | 21.6 a.u. | 18.95 a.u. | less affected by hemin |  |
| CC1=C(CCC(=O)O)c2cc3[nH]c(cc4nc(cc5[nH]c(cc1n2)c(C)c5C(C)O)C(C)=C4C(C)O)c(C)c3CCC(=O)O (stereo not drawn) [HP (4), hematoporphyrin] | 14.38 a.u. | 9.58 a.u. |  |  |
| C=CC1=C(C)c2cc3[n-]c(cc4nc(cc5[n-]c(cc1n2)c(C)c5C=C)C(C)=C4CCC(=O)O)c(CCC(=O)O)c3C.[Zn+2] [Zn-PpIX (3), Zn-PpIX] | 31.45 a.u. | 16.87 a.u. | moderately affected by hemin |  |
| Zn-HP [Zn-HP (5)] | 29.2 a.u. | 14.52 a.u. | moderately affected by hemin |  |
| 3,8-Diacetyldeuteroporphyrin dimethyl diester [DiAcDP diMe (12)] | 20.9 a.u. | 18.05 a.u. | less affected by hemin |  |
| di-O-succinyl-HP dimethyl diester [DiSuccHP diMe (10)] | 19.37 a.u. | 16.9 a.u. | less affected by hemin |  |
| C=CC1=C(C)c2cc3[n-]c(cc4[n-]c(cc5nc(cc1n2)C(C)=C5C=C)c(C)c4CCC(=O)O)c(CCC(=O)O)c3C.[Cl-].[Fe+3] [hemin, Fe(III)-protoporphyrin IX, reference compound] | 2.55 a.u. |  |  |  |
| C=CC1=C(C)c2cc3[nH]c(cc4[nH]c(cc5nc(cc1n2)C(C)=C5C=C)c(C)c4CCC(=O)OC)c(CCC(=O)OC)c3C [PpIX diMe (7), PpIX dimethyl diester] | 15.75 a.u. | 12.75 a.u. |  |  |
| C[n+]1ccc(-c2c3nc(c(-c4cc[n+](C)cc4)c4ccc([nH]4)c(-c4cc[n+](C)cc4)c4nc(c(-c5cc[n+](C)cc5)c5ccc2[nH]5)C=C4)C=C3)cc1 [TMPyP, reference compound] |  |  |  | Antimicrobial activity (minimum 3-log CFU reduction) ([3]; 0 min (dark), no irradiation (dark toxicity)): < 7.4 μM; Antimicrobial activity (minimum 3-log CFU reduction) ([3]; 0 min (dark), no irradiation (dark toxicity), listed as TMPy): <7.4 μM; Antimicrobial activity (minimum 3-log CFU reduction) ([3]; 5 min CFL 406 nm, 12.4 mW/cm^2 (3.7 J/cm^2)): 0.92 μM; potency relative to dark toxicity (0 min exposure) ([3]; 5 min CFL): <8x; Antimicrobial activity (minimum 3-log CFU reduction) ([3]; 15 min CFL 406 nm, 12.4 mW/cm^2 (11.2 J/cm^2)): 0.23 μM; potency relative to dark toxicity (0 min exposure) ([3]; 15 min CFL): <32x; concentration for 3-log reduction (measurable antimicrobial action) (S. aureus [4]): 235 nM; concentration for 6-log reduction (total eradication) (S. aureus [4]): 940 nM |
| Ga(III)-PpIX dimethyl diester [Ga-PpIX diMe (6)] | 60.55 a.u. | 33.95 a.u. |  |  |
| Ga(III) diacetyldeuteroporphyrin (diAcDP) dimethyl diester [Ga-DiAcDP diMe (11)] | 12.27 a.u. | 11.85 a.u. | less affected by hemin |  |
| COC(=O)CCc1c(C)c2cc3nc(cc4nc(cc5[nH]c(cc1[nH]2)c(CCC(=O)OC)c5C)C(C(C)O)=C4C)C(C(C)O)=C3C (stereo not drawn) [HP diMe (8), HP dimethyl diester] | 29.05 a.u. | 26.9 a.u. |  |  |
| GaPpIX/10 nm HbAgNP: GaPpIX added to apohemoglobin (Ga-hemoglobin) adsorbed onto 10-nm Ag nanoparticles |  |  |  | GaPpIX effective concentration (aPDI) (S. aureus [5]): 0.022 to 0.080 µM; concentration for 3-log reduction (MRSA386): 79 nM; concentration for 6-log reduction (MRSA386): 158 nM; concentration for 3-log reduction (MRSA385): 27 nM; concentration for 6-log reduction (MRSA385): 109 nM; concentration for 3-log reduction (S. aureus [4]; in the presence of 10 nm AgNP): 22 nM; concentration for 6-log reduction (S. aureus [4]; in the presence of 10 nm AgNP): 27 nM; concentration for 3-log reduction (MRSA387): 43 nM; concentration for 6-log reduction (MRSA387): 218 nM; concentration for 3-log reduction (MRSA383): 27 nM; concentration for 6-log reduction (MRSA383): 79 nM |
